Laboratory results from US4004023A, “1-(4-Butylphenyl)-1-(3,4-methylenedioxyphenyl)-2-nitroalkanes and synergistic insecticidal mixtures therewith” (Mobil Oil Corporation, priority 1975, dated 1977).

Legend:
Type in all cases: in vivo
[1] = test system: Southern armyworm; assay: whole plant or invertebrate; settings: Spodoptera eridania, in Phaseolus lunatus, third or fourth instar larvae, 48 to 72 hour, read-out: percent kill, Southern armyworm (SA)
Experimental: (§1) The new 1-(4-butylphenyl)-1-(3,4-methylenedioxyphenyl)-2-nitroalkanes of this invention (Examples 4-6) were evaluated in standard greenhouse insecticide tests using housefly (HF), Mexican bean beetle (MB), Southern armyworm (SA) and yellow fever mosquito (YF). The rates of application were 500 and 100 ppm of active ingredient except in the mosquito test where test rates were 10 and 1 ppm. The results as set forth in Table I below indicate the percent kill of each insect species.
(§2) Southern armyworm and Mexican bean beetle; lima bean leaves of uniform size were momentarily dipped in a water-acetone solution of the test compound and the treated leaves were then placed on moistened filter paper in 9 cm. petri dishes and allowed to air dry. When dry, five, third or fourth instar larvae were introduced and encouraged to feed on the treated foliage by means of confinement. The dishes were closed and held for observation of mortality and feeding during a 48 to 72 hour period.

[2] = test system: Mexican bean beetle; assay: whole plant or invertebrate; settings: Epilachna varivestis, third or fourth instar larvae, 48 to 72 hour, read-out: percent kill, Mexican bean beetle (MB)
Experimental: as §1, §2

[3] = test system: housefly; assay: whole plant or invertebrate; settings: Musca domestica, adult houseflies, mortality at 24 hours, read-out: percent kill, housefly (HF)
Experimental: as §1
(§3) Housefly; 1 milliliter of an aqueous solution or suspension of the test compound was pipeted into a 9 cm. petri dish containing filter paper and 0.1 gram of granular sugar. Ten adult houseflies were admitted and the dish closed. Observations were made periodically for knockdown and at 24 hours for mortality.

[4] = test system: yellow fever mosquito; assay: whole plant or invertebrate; settings: Aedes aegypti, fourth stage larvae, 24 hour exposure, read-out: percent kill, yellow fever mosquito (YF); for mortality at 1 ppm: 1 ppm (line printed as 100 ppm; footnote: 10 and 1 ppm for YF); for mortality at 10 ppm: 10 ppm (line printed as 500 ppm; footnote: 10 and 1 ppm for YF)
Experimental: as §1
Yellow fever mosquito; fourth stage larvae were exposed to a solution of the active compound in water. The active material was initially dissolved in acetone and then added to the water. The compounds were screened at 10 ppm and at 1 ppm using approximately 10 larvae per 100 ml of treated water. Each treatment was replicated twice. Mortality was determined after 24 hour exposure.

[5] = test system: housefly; assay: insecticide synergist test of mixtures on housefly; settings: 25 ppm (0.0025 wt. %) total of both active ingredients; numbers in parentheses are % in mixture; 1440 min
Experimental: as §3
The new 1-(4-butylphenyl)-1-(3,4-methylenedioxyphenyl)-2-nitroalkanes of this invention were evaluated as insecticide synergists in standard insecticide tests. In general the compounds of this invention were combined with the insecticide -- 1-(p-tert-butylphenyl)-1-(p-ethoxyphenyl)-2-nitrobutane (pending application Serial No. 410,935, filed October 29, 1973) designated as Example 8 above -- in varying proportions starting from, for example, 90% Example 4, 5 or 6 plus 10% Example 8 and decreasing to, for example 10% Example 4, 5 or 6, plus 90% Example 8. In all cases, the total sum of active ingredients (i.e. Examples 4, 5 or 6 plus 8) equaled 25 ppm. These mixtures were tested on housefly following the standard greenhouse test procedure, outlined above. The results as set forth below indicate the percent kill (or percent control) of the insect species: […]

Row | Compound | mortality at 100 ppm [1] | mortality at 500 ppm [1] | mortality at 100 ppm [2] | mortality at 500 ppm [2] | mortality at 100 ppm [3] | mortality at 500 ppm [3] | mortality at 1 ppm [4] | mortality at 10 ppm [4] | % CONTROL (percent kill or percent control), housefly [5]
1 | CCC(C(c1ccc(C(C)(C)C)cc1)c1ccc2c(c1)OCO2)[N+](=O)[O-] (centres unmarked) [Example 4, 1-(4-tert-Butylphenyl)-1-(3,4-methylenedioxyphenyl)-2-nitrobutane] | 100% | 100% | 100% | 100% | 20% | 100% | 40% | 100% | –
2 | CC(C(c1ccc(C(C)(C)C)cc1)c1ccc2c(c1)OCO2)[N+](=O)[O-] (centres unmarked) [Example 5, 1-(4-tert-Butylphenyl)-1-(3,4-methylenedioxyphenyl)-2-nitropropane] | 80% | 100% | 100% | 100% | 10% | 100% | 100% | 100% | –
3 | CCC(C)c1ccc(C(c2ccc3c(c2)OCO3)C(CC)[N+](=O)[O-])cc1 (centres unmarked) [Example 6, 1-(4-sec-Butylphenyl)-1-(3,4-methylenedioxyphenyl)-2-nitrobutane] | 30% | 100% | 90% | 100% | 100% | 100% | 100% | 100% | 0%
4 | CCOc1ccc(C(c2ccc(C(C)(C)C)cc2)C(CC)[N+](=O)[O-])cc1 (centres unmarked) [Example 8, 1-(p-tert-Butylphenyl)-1-(p-ethoxyphenyl)-2-nitrobutane] | – | – | – | – | – | – | – | – | 40%
